How the values were obtained:
[1] = test system: fibroblasts isolated from the lungs of mice; assay: Western blotting and quantitative RT-PCR of fibroblasts isolated from lungs of treated BLM mice; type: in vivo; conditions: fibroblasts from BLM mice treated with nutlin-3a
Experimental: FIGS. 12A-12C. CSP-4 or nutlin-3a (NTL) inhibits proliferation of FL-fibroblasts. Mice were exposed to BLM for 14 d to induce significant lung fibrosis or to saline (fibrosis controls). 14 d later, mice exposed to BLM were treated with CSP-4 or CP, or nutlin-3a (see FIGS. 10A-10D/11A-11D). (FIG. 12A): Lung sections (d 21 after BLM injury) were subjected to immunohistochemistry (IHC) for Ki-67 to assess proliferation. One representative example is shown (n=9). Fibroblasts were isolated from the lungs of mice exposed to saline, BLM or BLM+nutlin-3a (as described in FIG. 11A) were tested for the changes in expression of col-I, p53 and downstream uPA and PAI-1 proteins by Western blotting (FIG. 12B):, and mRNA by quantitative RT-PCR (FIG. 12C).
Mice exposed to BLM 14 days earlier were treated with CSP-4 or its control (CP) or Nutlin-3a IV (as in Examples IX and X). Seven days later lung sections were obtained and subjected to IHC for Ki-67 to assess cell proliferation (see FIG. 12A). […] Fibroblasts isolated from the lungs of these animals (as described in Example X) were tested for the changes in expression of col-I, p53 and downstream uPA and PAI-1 proteins by Western blotting, and mRNA by quantitative RT-PCR (see FIGS. 12B-12C).

ATII cell = conditions: BLM- or cigarette smoke-induced; cited from earlier work

COc1ccc(C2=NC(c3ccc(Cl)cc3)C(c3ccc(Cl)cc3)N2C(=O)N2CCNC(=O)C2)c(OC(C)C)c1 (stereo not drawn) [nutlin-3a, 4-2-4,5-dihydro-1H-imidazole-1-piperazin-2-one]
PAI-1 protein and mRNA expression [1]: marked induction
col-I protein and mRNA expression [1]: significant suppressed
p53 protein [1]: marked induction
uPA protein and mRNA expression [1]: significant suppressed

FTTFTVT [CSP-4]
ATII cell apoptosis (ATII cell): inhibited
ATII cell p53 expression (ATII cell): inhibited

Reference: patent US12173089B2, “Inhibition of pulmonary fibrosis with nutlin-3A and peptides” (BOARD OF REGENTS, THE UNIVERSITY OF TEXAS SYSTEM, priority 2013, dated 2024)
